According to patent US8436023B2, “Cyclohexyl-azetidinyl antagonists of CCR2” (Janssen Pharmaceutica N.V., priority 2010, dated 2013):

Target: T1, CCR2 (Homo sapiens, UniProt P41597)
T1 construct: host or cells: THP-1 human monocytic cells
T1 sequence (P41597 1-360 isoform P41597-2): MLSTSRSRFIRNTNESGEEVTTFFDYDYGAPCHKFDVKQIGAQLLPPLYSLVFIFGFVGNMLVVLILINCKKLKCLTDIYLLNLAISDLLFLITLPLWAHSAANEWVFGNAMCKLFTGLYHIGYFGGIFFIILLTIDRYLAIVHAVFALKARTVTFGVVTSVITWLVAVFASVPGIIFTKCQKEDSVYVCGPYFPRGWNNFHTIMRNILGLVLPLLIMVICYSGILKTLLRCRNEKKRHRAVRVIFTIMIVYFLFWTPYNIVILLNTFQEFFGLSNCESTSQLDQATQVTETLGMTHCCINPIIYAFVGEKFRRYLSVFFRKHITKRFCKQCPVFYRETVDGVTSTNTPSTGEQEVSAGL
Test: MCP-1 Receptor Binding Assay in THP-1 Cells
Conditions: 0.5 nM 125I labeled MCP-1, 2 hours at 30° C., less polar isomer tested where stated, read-out: Inhibition of MCP-1 Binding IC50, CCR2 Binding
Description: MCP-1 Receptor Binding Assay in THP-1 Cells
Human monocytic cell line THP-1 cells were obtained from American Type Culture Collection (Manassas, Va., USA). The THP-1 cells were grown in RPMI-1640 (RPMI: Roswell Park Memorial Institute Medium-cell culture growth media) supplemented with 10% fetal bovine serum in a humidified 5% CO2 atmosphere at 37° C. The cell density was maintained […].
THP-1 (cells were incubated with 0.5 nM ^125I labeled MCP-1 (Perkin-Elmer Life Sciences, Inc. Boston, Mass.) in the presence of varying concentrations of either unlabeled MCP-1 (R & D Systems, Minneapolis, Minn.) or test compound for 2 hours at 30° C. in a 96 well plate. Cells were then harvested onto a filter plate, dried, and 20 μL of Microscint 20 was added to each well. Plates were counted in a TopCount NXT, Microplate Scintillation & Luminescence Counter (Perkin-Elmer Life Sciences, Inc. Boston, Mass.). Blank values (buffer only) were subtracted from all values and drug treated values were compared to vehicle treated values. 1 μM cold MCP-1 was used for nonspecific binding.
Where an IC50 value was not obtained for a particular compound, the percent inhibition is provided at a test concentration of 25 μM.

IC50 [nM] | SMILES
530 | NC(=O)n1nc(NCC(=O)NC2CN(C3CCC(O)CC3)C2)c2cc(C(F)(F)F)ccc21 (stereo not shown) [Example 85, 3-({[1-(4-Hydroxy-cyclohexyl)-azetidin-3-ylcarbamoyl]-methyl}-amino)-5-trifluoromethyl-indazole-1-carboxylic acid amide]
13 | CCOC(=O)C1CCC(N2CC(NC(=O)CNc3nn(C)c4ccc(C(F)(F)F)cc34)C2)CC1 (stereo not shown) [Example 32, 4-{3-[2-(1-Methyl-5-trifluoromethyl-1H-indazol-3-ylamino)-acetylamino]-azetidin-1-yl}-cyclohexane carboxylic acid ethyl ester]
750 | CC(C)(C)OC(=O)NC1CCC(N2CC(NC(=O)CNc3noc4ccc(C(F)(F)F)cc34)C2)CC1 (stereo not shown) [Example 10, (4-{3-[2-(5-Trifluoromethyl-benzo[d]isoxazol-3-ylamino)-acetylamino]-azetidin-1-yl}-cyclohexyl)-carbamic acid tert-butyl ester]
60 | COc1ccc(C2(O)CCC(N3CC(NC(=O)CNc4nn(C)c5ccc(OC(F)(F)F)cc45)C3)CC2)cn1 (stereo not shown) [Example 57]
360 | CCCC1CCC(N2CC(NC(=O)CNc3noc4ccc(C(F)(F)F)cc34)C2)CC1 (stereo not shown) [Example 14, N-[1-(4-Propyl-cyclohexyl)-azetidin-3-yl]-2-(5-trifluoromethyl-benzo[d]isoxazol-3-ylamino)-acetamide]
9.4 | COc1ccc(C2(O)CCC(N3CC(NC(=O)CNc4nn(C)c5ccc(C(F)(F)F)cc45)C3)CC2)cn1 (stereo not shown) [Example 18, N-{1-[4-Hydroxy-4-(6-methoxy-pyridin-3-yl)-cyclohexyl]-azetidin-3-yl}-2-(1-methyl-5-trifluoromethyl-1H-indazol-3-ylamino)-acetamide]
56 | CCOC(=O)C1CCC(N2CC(NC(=O)CNc3nn(C(N)=O)c4ccc(C(F)(F)F)cc34)C2)CC1 (stereo not shown) [Example 89, 4-{3-[2-(1-Carbamoyl-5-trifluoromethyl-1H-indazol-3-ylamino)-acetylamino]-azetidin-1-yl}-cyclohexane carboxylic acid ethyl ester]
230 | CCOC(=O)C1CCC(N2CC(NC(=O)CNc3nn(CC(F)(F)F)c4ccc(C(F)(F)F)cc34)C2)CC1 (stereo not shown) [Example 72, 4-(3-{2-[1-(2,2,2-Trifluoro-ethyl)-5-trifluoromethyl-1H-indazol-3-ylamino]-acetylamino}-azetidin-1-yl)-cyclohexane carboxylic acid ethyl ester]
4.8 | CN(C)c1cccc(C2(O)CCC(N3CC(NC(=O)CNc4nn(C)c5ccc(C(F)(F)F)cc45)C3)CC2)c1 (stereo not shown) [Example 20, N-{1-[4-(3-Dimethylamino-phenyl)-4-hydroxy-cyclohexyl]-azetidin-3-yl}-2-(1-methyl-5-trifluoromethyl-1H-indazol-3-ylamino)-acetamide]
750 | CC(C)C1CCC(N2CC(NC(=O)CNc3noc4ccc(OC(F)(F)F)cc34)C2)CC1 (stereo not shown) [Example 17, N-[1-(4-Isopropyl-cyclohexyl)-azetidin-3-yl]-2-(5-trifluoromethoxy-benzo[d]isoxazol-3-ylamino)-acetamide]
390 | CCC1CCC(N2CC(NC(=O)CNc3noc4ccc(C(F)(F)F)cc34)C2)CC1 (stereo not shown) [Example 12, N-[1-(4-Ethyl-cyclohexyl)-azetidin-3-yl]-2-(5-trifluoromethyl-benzo[d]isoxazol-3-ylamino)-acetamide]
146 | Cn1nc(NCC(=O)NC2CN(C3CCC(O)(c4ncco4)CC3)C2)c2cc(C(F)(F)F)ccc21 (stereo not shown) [Example 26, N-[1-(4-Hydroxy-4-oxazol-2-yl-cyclohexyl)-azetidin-3-yl]-2-(1-methyl-5-trifluoromethyl-1H-indazol-3-ylamino)-acetamide]
200 | Cn1cc(C2(O)CCC(N3CC(NC(=O)CNc4nn(C)c5ccc(C(F)(F)F)cc45)C3)CC2)cn1 (stereo not shown) [Example 25, N-{1-[4-Hydroxy-4-(1-methyl-1H-pyrazol-4-yl)-cyclohexyl]-azetidin-3-yl}-2-(1-methyl-5-trifluoromethyl-1H-indazol-3-ylamino)-acetamide]
370 | CC(C)C1CCC(N2CC(NC(=O)CNc3n[nH]c4ccc(C(F)(F)F)cc34)C2)CC1 (stereo not shown) [Example 52, N-[1-(4-Isopropyl-cyclohexyl)-azetidin-3-yl]-2-(5-trifluoromethyl-1H-indazol-3-ylamino)-acet amide]
300 | Cn1nc(NCC(=O)NC2CN(C3CCC(c4ccc5c(c4)OCO5)CC3)C2)c2cc(C(O)C(F)(F)F)ccc21 (stereo not shown) [Example 64, N-[1-(4-Benzo[1,3]dioxol-5-yl-cyclohexyl)-azetidin-3-yl]-2-[1-methyl-5-(2,2,2-trifluoro-1-hydroxy-ethyl)-1H-indazol-3-ylamino]-acetamide]
31 | O=C(CNc1noc2ccc(C(F)(F)F)cc12)NC1CN(C2CCC(O)(c3nccs3)CC2)C1 (stereo not shown) [Example 4, N-[1-(4-Hydroxy-4-thiazol-2-yl-cyclohexyl)-azetidin-3-yl]-2-(5-trifluoromethyl-benzo[d]isoxazol-3-ylamino)-acetamide]
150 | Cn1nc(NCC(=O)NC2CN(C3CCC(C#N)CC3)C2)c2cc(C(F)(F)F)ccc21 (stereo not shown) [Example 38, N-[1-(4-Cyano-cyclohexyl)-azetidin-3-yl]-2-(1-methyl-5-trifluoromethyl-1H-indazol-3-ylamino)-acetamide]
7700 | CC(C)(C)[Si](C)(C)OC1CCC(N2CC(NC(=O)CNc3noc4ccc(C(F)(F)F)cc34)C2)CC1 (stereo not shown) [Example 8, N-{1-[4-(tert-Butyl-dimethyl-silanyloxy)-cyclohexyl]-azetidin-3-yl}-2-(5-trifluoromethyl-benzo[d]isoxazol-3-ylamino)-acetamide]
32 | COc1ccc(C2(O)CCC(N3CC(NC(=O)CNc4nn(CCO)c5ccc(C(F)(F)F)cc45)C3)CC2)cn1 (stereo not shown) [Example 75, 2-[1-(2-Hydroxy-ethyl)-5-trifluoromethyl-1H-indazol-3-ylamino]-N-{1-[4-hydroxy-4-(6-methoxy-pyridin-3-yl)-cyclohexyl]-azetidin-3-yl}-acetamide]
16 | O=C(CNc1n[nH]c2ccc(C(F)(F)F)cc12)NC1CN(C2CCC(O)(c3cncs3)CC2)C1 (stereo not shown) [Example 42, N-[1-(4-Hydroxy-4-thiazol-5-yl-cyclohexyl)-azetidin-3-yl]-2-(5-trifluoromethyl-1H-indazol-3-ylamino)-acetamide]
230 | CCOC(=O)C1CCC(N2CC(NC(=O)CNc3nn(S(C)(=O)=O)c4ccc(C(F)(F)F)cc34)C2)CC1 (stereo not shown) [Example 99, 4-{3-[2-(1-Methanesulfonyl-5-trifluoromethyl-1H-indazol-3-ylamino)-acetylamino]-azetidin-1-yl}-cyclohexane carboxylic acid ethyl ester]
360 | CCOC(=O)C1CCC(N2CC(NC(=O)CNc3nn(C(=O)NC(C)(C)C)c4ccc(C(F)(F)F)cc34)C2)CC1 (stereo not shown) [Example 88, 4-{3-[2-(1-tert-Butylcarbamoyl-5-trifluoromethyl-1H-indazol-3-ylamino)-acetylamino]-azetidin-1-yl}-cyclohexanecarboxylic acid ethyl ester]
340 | CC(C)C1CCC(N2CC(NC(=O)CNc3nn(C)c4ccc(OC(F)(F)F)cc34)C2)CC1 (stereo not shown) [Example 59]
29 | CC(C)NC(=O)n1nc(NCC(=O)NC2CN(C3CCC(c4ccccc4)CC3)C2)c2cc(C(F)(F)F)ccc21 (stereo not shown) [Example 90, 3-({[1-(4-Phenyl-cyclohexyl)-azetidin-3-ylcarbamoyl]-methyl}-amino)-5-trifluoromethyl-indazole-1-carboxylic acid isopropylamide]
3700 | COc1ccc(C2CCC(N3CC(NC(=O)CNc4nn(S(C)(=O)=O)c5ccc(C(F)(F)F)cc45)C3)CC2)cn1 (stereo not shown) [Example 100, 2-(1-Methanesulfonyl-5-trifluoromethyl-1H-indazol-3-ylamino)-N-{1-[4-(6-methoxy-pyridin-3-yl)-cyclohexyl]-azetidin-3-yl}-acetamide]
270 | COc1cccc(C2(O)CCC(N3CC(NC(=O)CNc4nn(Cc5ccccc5)c5ccc(C(F)(F)F)cc45)C3)CC2)n1 (stereo not shown) [Example 96, 2-(1-Benzyl-5-trifluoromethyl-1H-indazol-3-ylamino)-N-{1-[4-hydroxy-4-(6-methoxy-pyridin-2-yl)-cyclohexyl]-azetidin-3-yl}-acetamide]
29 | CCOC(=O)C1CCC(N2CC(NC(=O)CNc3noc4ccc(C(F)(F)F)cc34)C2)CC1 (stereo not shown) [Example 6, 4-{3-[2-(5-Trifluoromethyl-benzo[d]isoxazol-3-ylamino)-acetylamino]-azetidin-1-yl}-cyclohexanecarboxylic acid ethyl ester]
31 | O=C(CNc1n[nH]c2ccc(C(F)(F)F)cc12)NC1CN(C2CCC(O)(c3cccnc3)CC2)C1 (stereo not shown) [Example 41, N-[1-(4-Hydroxy-4-pyridin-3-yl-cyclohexyl)-azetidin-3-yl]-2-(5-trifluoromethyl-1H-indazol-3-ylamino)-acetamide]
